According to PubChem BioAssay AID1963838 (Molecular Pharmacology Branch, DTP, NCI, 2024):

System: 855422-203-R-J1-PDC complex spheroid viability
Assay: Anticancer human tumor 855422-203-R-J1-PDC patient-derived bladder carcinoma cell line growth inhibition [POLQ]
Details: for IC50: curve of first compound; for viability, T/C: stronger effect = lower value
Procedure, shortened: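 Patient-derived tumour cells were co-cultured with HUVEC and mesenchymal stem cells as multicellular spheroids at 37 °C. They were treated with POLQ inhibitors (novobiocin, ART-558, RP6685) alone or combined with other agents. Top concentrations were at or near clinical Cmax (otherwise 10 microM; SN-38 at 1 microM), decreasing in half-log steps.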

[1] = second compound 0.0316 µM, first compound 0.0316 µM
[2] = second compound 0.0316 µM, first compound 0.1 µM
[3] = second compound 0.1 µM, first compound 0.0316 µM
[4] = second compound 0.1 µM, first compound 0.1 µM
[5] = second compound 0.316 µM, first compound 0.0316 µM
[6] = second compound 0.316 µM, first compound 0.1 µM
[7] = second compound 1 µM, first compound 0.0316 µM
[8] = second compound 1 µM, first compound 0.1 µM
[9] = second compound 3.16 µM, first compound 0.0316 µM
[10] = second compound 3.16 µM, first compound 0.1 µM
[11] = second compound 10 µM, first compound 0.0316 µM
[12] = second compound 10 µM, first compound 0.1 µM
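Also: spheroids exposed to compounds for seven days before readout.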

SMILES: COc1ccc([C@@H](O)c2cc(-c3ncnc4cc(N5CCOCC5)ccc34)c(F)cc2Cl)nn1 + Cc1cccc(N(C)C(=O)C2C(O)CCN2c2nc(C)cc(C(F)(F)F)c2C#N)c1
- IC50 (second compound 0.0316 µM): 5.34 µM
- IC50 (second compound 0.1 µM): 5.16 µM
- IC50 (second compound 0.316 µM): 4.25 µM
- IC50 (second compound 1 µM): 3.05 µM
- IC50 (second compound 3.16 µM): 4.18 µM
- IC50 (second compound 10 µM): 2.37 µM
- viability, T/C [1]: 98.5%
- viability, T/C [2]: 109%
- viability, T/C (second compound 0.0316 µM, first compound 0.316 µM): 107%
- viability, T/C (second compound 0.0316 µM, first compound 1 µM): 84.7%
- viability, T/C (second compound 0.0316 µM, first compound 3.16 µM): 66.1%
- viability, T/C (second compound 0.0316 µM, first compound 10 µM): 32.7%
- viability, T/C [3]: 93.1%
- viability, T/C [4]: 101%
- viability, T/C (second compound 0.1 µM, first compound 0.316 µM): 83.8%
- viability, T/C (second compound 0.1 µM, first compound 1 µM): 87.7%
- viability, T/C (second compound 0.1 µM, first compound 3.16 µM): 63.9%
- viability, T/C (second compound 0.1 µM, first compound 10 µM): 30.1%
- viability, T/C [5]: 101%
- viability, T/C [6]: 111%
- viability, T/C (second compound 0.316 µM, first compound 0.316 µM): 104%
- viability, T/C (second compound 0.316 µM, first compound 1 µM): 82.3%
- viability, T/C (second compound 0.316 µM, first compound 3.16 µM): 58.1%
- viability, T/C (second compound 0.316 µM, first compound 10 µM): 31.2%
- viability, T/C [7]: 98.8%
- viability, T/C [8]: 97.2%
- viability, T/C (second compound 1 µM, first compound 0.316 µM): 99.7%
- viability, T/C (second compound 1 µM, first compound 1 µM): 86.5%
- viability, T/C (second compound 1 µM, first compound 3.16 µM): 49%
- viability, T/C (second compound 1 µM, first compound 10 µM): 26.3%
- viability, T/C [9]: 108%
- viability, T/C [10]: 106%
- viability, T/C (second compound 3.16 µM, first compound 0.316 µM): 89%
- viability, T/C (second compound 3.16 µM, first compound 1 µM): 79.5%
- viability, T/C (second compound 3.16 µM, first compound 3.16 µM): 56.2%
- viability, T/C (second compound 3.16 µM, first compound 10 µM): 29.6%
- viability, T/C [11]: 96.4%
- viability, T/C [12]: 105%
- viability, T/C (second compound 10 µM, first compound 0.316 µM): 96.5%
- viability, T/C (second compound 10 µM, first compound 1 µM): 66.8%
- viability, T/C (second compound 10 µM, first compound 3.16 µM): 47%
- viability, T/C (second compound 10 µM, first compound 10 µM): 28.8%

SMILES: Cn1ncnc1[C@H]1c2n[nH]c(=O)c3cc(F)cc(c23)N[C@@H]1c1ccc(F)cc1 + Cc1cccc(N(C)C(=O)C2C(O)CCN2c2nc(C)cc(C(F)(F)F)c2C#N)c1
- IC50 (second compound 0.0316 µM): > 0.1 µM
- IC50 (second compound 0.1 µM): > 0.1 µM
- IC50 (second compound 0.316 µM): > 0.1 µM
- IC50 (second compound 1 µM): > 0.1 µM
- IC50 (second compound 3.16 µM): > 0.1 µM
- IC50 (second compound 10 µM): > 0.1 µM
- viability, T/C (second compound 0.0316 µM, first compound 0.000316 µM): 114%
- viability, T/C (second compound 0.0316 µM, first compound 0.001 µM): 107%
- viability, T/C (second compound 0.0316 µM, first compound 0.00316 µM): 115%
- viability, T/C (second compound 0.0316 µM, first compound 0.01 µM): 108%
- viability, T/C [1]: 108%
- viability, T/C [2]: 103%
- viability, T/C (second compound 0.1 µM, first compound 0.000316 µM): 102%
- viability, T/C (second compound 0.1 µM, first compound 0.001 µM): 103%
- viability, T/C (second compound 0.1 µM, first compound 0.00316 µM): 98.5%
- viability, T/C (second compound 0.1 µM, first compound 0.01 µM): 100%
- viability, T/C [3]: 105%
- viability, T/C [4]: 107%
- viability, T/C (second compound 0.316 µM, first compound 0.000316 µM): 108%
- viability, T/C (second compound 0.316 µM, first compound 0.001 µM): 104%
- viability, T/C (second compound 0.316 µM, first compound 0.00316 µM): 116%
- viability, T/C (second compound 0.316 µM, first compound 0.01 µM): 104%
- viability, T/C [5]: 116%
- viability, T/C [6]: 104%
- viability, T/C (second compound 1 µM, first compound 0.000316 µM): 100%
- viability, T/C (second compound 1 µM, first compound 0.001 µM): 109%
- viability, T/C (second compound 1 µM, first compound 0.00316 µM): 112%
- viability, T/C (second compound 1 µM, first compound 0.01 µM): 102%
- viability, T/C [7]: 104%
- viability, T/C [8]: 97.3%
- viability, T/C (second compound 3.16 µM, first compound 0.000316 µM): 98.6%
- viability, T/C (second compound 3.16 µM, first compound 0.001 µM): 98%
- viability, T/C (second compound 3.16 µM, first compound 0.00316 µM): 96.4%
- viability, T/C (second compound 3.16 µM, first compound 0.01 µM): 113%
- viability, T/C [9]: 113%
- viability, T/C [10]: 104%
- viability, T/C (second compound 10 µM, first compound 0.000316 µM): 109%
- viability, T/C (second compound 10 µM, first compound 0.001 µM): 103%
- viability, T/C (second compound 10 µM, first compound 0.00316 µM): 94.4%
- viability, T/C (second compound 10 µM, first compound 0.01 µM): 100%
- viability, T/C [11]: 111%
- viability, T/C [12]: 99.2%
